Reference: PMC10590756, “Glutarate regulates T cell metabolism and anti-tumour immunity” (Nature Metabolism, 2023)

How the values were obtained:
human CD8^+ T cells = assay: Isotope tracing of ^13C5-labelled DEG and intracellular glutarate by LC-tandem MS; type: in vitro ADME
Procedure: To affirm that exogenous administration of DEG leads to increased intracellular glutarate levels, we performed isotope tracing of human CD8^+ T cells treated with ^13C5-labelled DEG.
Cells were counted to determine viable cell numbers (Fig. 1f,h,i and Extended Data Fig. g,h,k). A total of 0.5–2 × 10^6 viable cells were collected, washed with cold PBS and metabolic activity was quenched by freezing samples in dry ice and ethanol, and stored at −80 °C. Metabolites were extracted by adding 150 μl ice-cold 1:1 (vol/vol) methanol/water (containing 1 mM N-cyclohexyl-2-aminoethanesulfonic acid (CHES) as an internal standard) to the cell pellets; samples were transferred to a chilled microcentrifuge tube containing 150 μl chloroform and […] (750 μl total in 3:1:1 vol/vol methanol/water/chloroform). Samples were sonicated in a water bath for 8 min at 4 °C, and centrifuged (13,000g) for 10 min at 4 °C. The supernatant containing the extract was transferred to a new tube for evaporation using TurboVap LV (Biotage), resuspended in 3:3:1 (vol/vol/vol) methanol/water/chloroform (350 μl total) to phase-separate polar metabolites from apolar metabolites and centrifuged. The aqueous phase was transferred to a new tube for evaporation using TurboVap LV, washed with 60 μl methanol and dried again. Evaporated extracts were dissolved in 100 µl MeOH–50% water, before injection on the machine. Isotopically labelled glutarates were determined by liquid chromatography (LC)–tandem mass spectrometry (tandem MS) on a Waters ACQUITY UPLC system coupled to a Xevo-TQ-XS mass spectrometer. […] The column was subsequently washed in 75% A for 2.5 min and re-equilibrated at initial conditions for 3 min. MS analyses were performed in multiple reaction monitoring (MRM) mode, with positive electrospray ionization (ESI) from minute 0 – 1.4 and negative electrospray ionization (ESI) from minute 1.4 to minute 4.7. Positive ESI was conducted according to the following parameters: capillary potential 3 kV, source offset 30 V, cone voltage 15 V, source temperature 150 °C, desolvation temperature 600 °C, cone gas flow 150 l h^−1, desolvation gas flow, 1,000 l h^−1, nebulizer 7 bar and collision gas flow 0.17 ml min^−1. Negative ESI was operated under the same conditions but with a capillary potential set to 2 kV and a cone voltage set to 20 V. Acquisition was performed using MRM with the mass transitions and parameters illustrated in Supplementary Table 4. […]
Cells were counted to determine the viable cell numbers (Extended Data Fig. 1i,n). […]
Glutarate was determined by LC–tandem MS on a Waters ACQUITY UPLC system coupled to a Xevo-TQ-S mass spectrometer (Waters). […]

CD19^+ Raji cells = assay: In vitro cytotoxicity and IFNγ secretion of CD19 CAR T cells; type: cell-based, human; conditions: T cells cultured 7 days with 500 µM DEG
Procedure: Secreted IFNγ levels of cultured cells were determined using an ELISA. Assays were performed with uncoated ELISA kits (catalogue no. 88-7316, Thermo Fisher Scientific), according to the manufacturer’s instructions. Absorbance was determined using a microplate reader (Sunrise, Tecan) at a wavelength of 450 nm.
Ten thousand B16F10-OVA or SKOV3 cells were seeded per well in 96-well plates and cocultured for a minimum of 14 h with varying ratios of mouse CD8^+ OT1 or human CD8^+RQR8^+ HER2 CAR T cells, respectively. T cells had been treated with or without DEG 7 days before the assay. Wells were washed twice with PBS to remove T cells and the number of remaining target cells was determined by culturing with 10 µg ml^−1 resazurin (catalogue no. R7017, Sigma-Aldrich) and measuring the fluorescence signal in a plate reader. Cytotoxicity was calculated relative to wells with no T cells added. Ten thousand Raji cells were cocultured for a minimum of 14 h with CD19 CAR T cells previously activated for 7 days and cultured with or without DEG. Cytotoxicity was assessed by flow cytometry using the ratio of live Raji cells to CountBright Absolute Counting Beads (catalogue no. C36950, Thermo Fisher Scientific). To determine specific cytotoxicity, data were normalized to the cytotoxicity of the vector-controlled transduced CD8 T cells of the respective donor.

Structure (SMILES): CCOC(=O)CCCC(=O)OCC [DEG, Diethyl glutarate]
- time of conversion of DEG to glutarate intracellularly (human CD8^+ T cells): ≤ 15 min
- increase of measured intracellular glutarate concentrations (human CD8^+ T cells; 500 µM DEG, 7 days): approximately twofold
- intracellular DEG (human CD8^+ T cells; 15 min after administration of the labelled compound): could not be detected
- conversion of DEG into intracellular glutarate after uptake (human CD8^+ T cells; ^13C5-labelled DEG): very rapidly converted into intracellular glutarate
- cytotoxicity of CD19^+ CAR T cells against CD19^+ Raji cells (CD19^+ Raji cells): increased cytotoxicity
- interferon-γ (IFNγ) secretion of CD19^+ CAR T cells (CD19^+ Raji cells; coculture with Raji cells): secreted more
